In US7524964B2, “Tetrahydrothiopyrano pyrazole cannabinoid modulators” (Janssen Pharmaceutica NV, priority 2005, dated 2009) one finds inhibition and IC50 data, which are given here for nine compounds.

For orientation: inhibition means the drop in the measured response relative to a control, in per cent. Broadly, the IC50 is the concentration that gives 50% inhibition. Low readings indicate greater potency in that assay, high ones weaker potency in that assay.

Read-outs that look alike come from different tables or passages of the source.

One test has as its target human CB1 receptor (Homo sapiens, UniProt P21554). Description: Binding assay, cannabinoid CB1 receptor ([3H]-CP-55,940 displacement). More on the design: expressed in transfected cells; host or cells: SK-N-MC cells, pcDNA3 CB-1 (human), semi-purified membranes. To be noted: for inhibition at 0.2 µM: test concentration 0.2 μM (superscript a). Put shortly:
(§1)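 Displacement of 0.2 nM [3H]-CP-55,940 (non-specific: 10 uM WIN 55,212) was run on semi-purified membranes of transfected SK-N-MC cells carrying human CB-1 or CB-2, 90 min, 30° C, pH 7.5. Scintillation counting; IC50 by linear regression, else % inhibition at 0.2, 1 or 10 μM.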

For a further test, the target named is T1, human CB-2 receptor (Homo sapiens, UniProt P34972).
T1 construct: expressed in transfected cells; host or cells: SK-N-MC cells, pcDNA3 CB-2 (human), semi-purified membranes
Description: Binding assay, cannabinoid CB2 receptor ([3H]-CP-55,940 displacement). To be noted: read-out: CB2 binding percent inhibition. The method, boiled down: as §1

Setting [1] is: read-out: CB1 binding percent inhibition.
[2] abbreviates: test concentration 0.2 μM (superscript a).

T1 sequence (P34972 whole entry): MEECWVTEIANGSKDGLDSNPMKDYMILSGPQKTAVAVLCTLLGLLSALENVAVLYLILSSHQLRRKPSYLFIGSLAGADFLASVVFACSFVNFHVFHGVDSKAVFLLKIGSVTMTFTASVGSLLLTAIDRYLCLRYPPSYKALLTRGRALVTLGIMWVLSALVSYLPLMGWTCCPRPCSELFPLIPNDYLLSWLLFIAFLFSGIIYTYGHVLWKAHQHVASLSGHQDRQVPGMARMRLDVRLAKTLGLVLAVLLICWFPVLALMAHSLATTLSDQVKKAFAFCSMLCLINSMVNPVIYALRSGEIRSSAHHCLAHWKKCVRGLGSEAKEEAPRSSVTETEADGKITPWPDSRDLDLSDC
Sequence of human CB1 receptor (P21554 whole entry): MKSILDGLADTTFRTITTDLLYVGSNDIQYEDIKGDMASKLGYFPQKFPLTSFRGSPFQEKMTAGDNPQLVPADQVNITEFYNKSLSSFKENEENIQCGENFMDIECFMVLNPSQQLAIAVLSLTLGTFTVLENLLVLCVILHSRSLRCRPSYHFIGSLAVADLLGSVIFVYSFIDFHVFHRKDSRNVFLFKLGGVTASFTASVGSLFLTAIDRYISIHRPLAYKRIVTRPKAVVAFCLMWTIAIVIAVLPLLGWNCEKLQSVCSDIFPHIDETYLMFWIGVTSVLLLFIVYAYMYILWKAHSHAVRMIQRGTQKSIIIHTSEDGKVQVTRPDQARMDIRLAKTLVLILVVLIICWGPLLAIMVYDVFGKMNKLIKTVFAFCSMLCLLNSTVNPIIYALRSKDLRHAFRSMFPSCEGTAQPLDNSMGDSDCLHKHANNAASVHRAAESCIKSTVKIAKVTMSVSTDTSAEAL

With `O=C(c1nn(-c2ccc(Cl)cc2Cl)c2c1CSC/C2=C\c1ccc(F)cc1)N1CCCCC1` [Cpd 55, (7Z)-[1-(2,4-dichloro-phenyl)-7-(4-fluoro-benzylidene)-1,4,6,7-tetrahydro-thiopyrano[4,3-c]pyrazol-3-yl]-piperidin-1-yl-methanone], the inhibition at 0.2 µM on human CB1 receptor (setting [1]) was found to be 52%; at human CB-2 receptor (setting [2]), 10%.
Regarding `C[C@@H](NC(=O)/C=C/c1nn(Cc2ccccc2)c2c1CS(=O)(=O)CC2)c1ccccc1` [Cpd 37, (2E)-3-(1-benzyl-5,5-dioxo-4,5,6,7-tetrahydro-1H-5λ^6-thiopyrano[4,3-c]pyrazol-3-yl)-N-[(1R)-1-phenyl-ethyl]-acrylamide], the inhibition at 10 µM on human CB1 receptor (test concentration 10 μM (superscript c), read-out: CB1 binding percent inhibition) came out at 11%; at human CB-2 receptor (test concentration 10 μM (superscript c)), 7%.
Turning to `O=C(NNc1ccc(Cl)cc1Cl)c1nn(-c2ccc(Cl)cc2Cl)c2c1CS(=O)(=O)C/C2=C\c1ccc(F)cc1` [Cpd 53, (7Z)-1-(2,4-dichloro-phenyl)-7-(4-fluoro-benzylidene)-5,5-dioxo-4,5,6,7-tetrahydro-1H-5λ^6-thiopyrano[4,3-c]pyrazole-3-carboxylic acid N′-(2,4-dichloro-phenyl)-hydrazide], the inhibition at 0.2 µM on human CB1 receptor (setting [1]) worked out at 55%; at human CB-2 receptor (setting [2]), 30%.
On to `O=C(NN1CC2CCCC2C1)c1nn(-c2ccc(Cl)cc2)c2c1CSC/C2=C\c1ccc(F)cc1` (stereo not drawn) [Cpd 103, (7Z)-1-(4-chloro-phenyl)-7-(4-fluoro-benzylidene)-1,4,6,7-tetrahydro-thiopyrano[4,3-c]pyrazole-3-carboxylic acid (hexahydro-cyclopenta[c]pyrrol-2-yl)-amide], for which the inhibition at 0.2 µM at human CB1 receptor (setting [1]) came out at 62%; at human CB-2 receptor (setting [2]) it was 5%.
The compound `CN(NC(=O)c1nn(-c2ccc(Cl)cc2)c2c1CS(=O)(=O)C/C2=C\c1ccc(F)cc1)c1ccccc1` [Cpd 100, (7Z)-1-(4-chloro-phenyl)-7-(4-fluoro-benzylidene)-5,5-dioxo-4,5,6,7-tetrahydro-1H-5λ^6-thiopyrano[4,3-c]pyrazole-3-carboxylic acid N′-methyl-N′-phenyl-hydrazide] returned an IC50 at human CB1 receptor of 25 nM. The inhibition at 0.2 µM at human CB-2 receptor turned out to be 9%.
Take `O=C(NN1CCCCC1)c1nn(-c2ccc(Cl)cc2)c2c1CSC/C2=C\c1ccc(F)cc1` [Cpd 93, (7Z)-1-(4-chloro-phenyl)-7-(4-fluoro-benzylidene)-1,4,6,7-tetrahydro-thiopyrano[4,3-c]pyrazole-3-carboxylic acid piperidin-1-ylamide]: on human CB1 receptor, the IC50 worked out at 36 nM. The inhibition at 0.2 µM on human CB-2 receptor (setting [2]) came to 26%.
As for `C[C@@H](NS(=O)(=O)/C=C/c1nn(-c2ccc(F)cc2F)c2c1CS(=O)(=O)CC2Cc1cccc(F)c1)C1CCCCC1` (stereo partly drawn) [Cpd 43, (E)-2-[1-(2,4-difluoro-phenyl)-7-(3-fluoro-benzyl)-5,5-dioxo-4,5,6,7-tetrahydro-1H-5λ^6-thiopyrano[4,3-c]pyrazol-3-yl]-ethenesulfonic acid [(1R)-1-cyclohexyl-ethyl]-amide], the values for the inhibition at 0.2 µM on human CB1 receptor (setting [1]) and on human CB-2 receptor (setting [2]) were 41% and 11%, respectively.
The like results for `O=C(NNc1ccc(Cl)cc1Cl)c1nn(-c2ccc(Cl)cc2Cl)c2c1CSC/C2=C\c1ccc(F)cc1` [Cpd 52, (7Z)-1-(2,4-dichloro-phenyl)-7-(4-fluoro-benzylidene)-1,4,6,7-tetrahydro-thiopyrano[4,3-c]pyrazole-3-carboxylic acid N′-(2,4-dichloro-phenyl)-hydrazide] were, in that order, 66% and 28%.
The like results for `COC[C@H]1CCCN1NC(=O)c1nn(-c2ccc(Cl)cc2Cl)c2c1CS(=O)(=O)C/C2=C\c1ccc(F)cc1` [Cpd 126, (7Z)-1-(2,4-dichloro-phenyl)-7-(4-fluoro-benzylidene)-5,5-dioxo-4,5,6,7-tetrahydro-1H-5λ^6-thiopyrano[4,3-c]pyrazole-3-carboxylic acid [(2R)-2-(methoxymethyl)-pyrrolidin-1-yl]-amide] were, in that order, 55% and 0%.
